Key:
[1] = tested on: MCD diet fed C57BL6/J mice; experiment: Methionine Choline Deficient (MCD) diet NASH mouse model; assay type: in vivo, C57BL6/J male mice; details: 62.5 mg/kg BID orally
Method: The preventive effects of MIN-102 was evaluated in a 7-week Methionine Choline Deficient (MCD) diet NASH mouse model (Verdelho Machado et al.). After the acclimation period, C57BL6/J male mice (n=20) were weighed and randomized into 2 homogenous treatment groups based on body weight (n=10/group), put on a MCD diet, and treated BID orally with vehicle or MIN-102 for 7 weeks.
MIN-102 was dosed 62.5 mg/kg BID orally by gavage.
After the acclimation period, C57BL6/J male mice (n=20) were weighed and randomized into 2 homogenous treatment groups based on body weight (n=10/group), put on a MCD diet, and treated BID orally with a vehicle or MIN-102 (125 mg/Kg/day) for 7 weeks. Body weight was measured 3 times/week until the end of the experimental phase.
At 7 weeks of diet/treatment, mice were weighed and treated at ˜08:00 am in the morning, then bled (maximal volume/EDTA) at ˜1:00 pm. Plasma was then immediately isolated and stored at −80° C. prior to assay plasma ALT and AST. The plasma volume left over was stored at −80° C. for eventual additional analysis.
After blood collection, the mice were sacrificed by cervical dislocation under isoflurane anesthesia and exsanguinated with sterile saline.
Histology analysis was performed (oil red O, H&E and Sirius Red staining) for NAFLD scoring system (NAS) for liver steatosis, inflammation, fibrosis and hepatocyte ballooning.

MDA MB231 KO cells = experiment: Mitochondrial respiration (OCR), Seahorse, MDA MB231 KO cells (MPC2 deleted); assay type: cell-based; details: MPC activity genetically deleted (MPC2 KO)
Method: (§1) To determine whether MIN-102 has any effect on pyruvate-mediated mitochondrial respiration, the extracellular flux analyzer Seahorse was used as described in Compan et al. Seahorse experiments were performed in the following cell lines: HeLa (Cervix cancer cells), A549 (lung cancer cells), wild type MDA MB 231, and MDA MB 231 in which MPC2 has been deleted, leading to inactivation of the MPC (MDA MB231 KO). MDA MB231 cells are epithelial breast cancer cells. Cells were incubated with increasing concentrations of the compounds for one hour at 37° C. before oxygen consumption rate (OCR) measurements. The Seahorse analyzer allowed to measure basal and maximal respiration measured upon depolarization with 1 μM CCCP.
(§2) The KO cells have been deleted of the MPC2 gene and therefore they display no MPC activity. […] OCR values are expressed as ratios of OCR in the presence of different concentrations of the tested compound over the OCR in PBS alone.

adiponectin = experiment: Plasma adiponectin levels in Sprague Dawley rats (ELISA); assay type: in vivo; details: 54 mg/Kg/day for 7 days, plasma 1 h after last administration, vs vehicle
Method: Evaluation of the effect of Compounds of the Disclosure on adiponectin was performed in Sprague Dawley rats. The rats were treated for 7 days with repeated doses of MIN-102 at 54 mg/Kg/day. Plasma were obtained at 1 h after the last M1N-102 administration. Adiponectin levels were measured by ELISA. Results were represented as mean+standard error of the mean of n=8. Data were analyzed by Kruskal-Wallis followed by the Dunn post-hoc test versus the vehicle group (****,p<0.0001).

[2] = humans, compared with pioglitazone; from PCT/IB2017/057587; cited from earlier work
[3] = tested on: wild type MDA MB 231 cells; experiment: Mitochondrial respiration (OCR), Seahorse, wild type MDA MB231 cells; assay type: cell-based; details: cells with active MPC
Method: as §1, §2

[4] = biological target: mitochondrial pyruvate carrier (MPC) (Homo sapiens (Human), UniProt O95563+Q9Y5U8); experiment: MPC inhibitory activity, BRET assay in HEK cells; assay type: cell-based
Chain of mitochondrial pyruvate carrier (MPC) (Q9Y5U8 whole entry, the tested form may be a part): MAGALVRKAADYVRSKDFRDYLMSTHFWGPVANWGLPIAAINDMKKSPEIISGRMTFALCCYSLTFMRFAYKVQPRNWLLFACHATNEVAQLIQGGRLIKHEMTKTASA
Chain of mitochondrial pyruvate carrier (MPC) (O95563 whole entry, the tested form may be a part): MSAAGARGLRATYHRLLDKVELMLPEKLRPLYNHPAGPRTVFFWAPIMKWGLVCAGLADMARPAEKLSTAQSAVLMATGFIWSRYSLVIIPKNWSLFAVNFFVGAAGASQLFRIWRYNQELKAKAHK
Method: The MPC is a heterodimer composed of two subunits, MPC1 and MPC2. MPC1 and MPC2 interact to form an active carrier. In the assay, MPC2 was fused to Rluc8 (Donor) and MPC1 to Venus (Acceptor). These chimeric proteins were stably expressed in HEK cells. BRET activity was measured following addition of coelenterazine in the culture medium. Coelenterazine enters into cells and in contact with luciferase Rluc8 emits light, which activates the emission of fluorescence by the Acceptor, provided the distance between the Donor and Acceptor is <[…]. If the distance between Donor and Acceptor is >[…], no BRET activity is measured. The level of BRET activity reflects a change in the conformation of the MPC: it is high when the carrier is in a closed conformation, low when the carrier is at rest and intermediary when it transports pyruvate. In this case, the BRET activity is the mean value between the BRET value when the carrier is at rest (Maximal distance between Donor and Acceptor) and the BRET value when it is closed (Shortest distance between Donor and Acceptor)

Row | SMILES | hepatic cholesterol levels ([1]; 7 weeks) | oil red o staining % ([1]; 7 weeks, vs vehicle) | reduction in hepatic triglycerides levels ([1]; 7 weeks, vs vehicle) | reduction of plasma ALT level ([1]; 7 weeks, vs vehicle) | reduction of plasma AST level ([1]; 7 weeks, vs vehicle) | Mean NAS group score ([1]; 7 weeks, histology) | liver inflammation ([1]; 7 weeks, histology) | steatosis score ([1]; 7 weeks, histology, vs vehicle) | body weight loss ([1]; day 14 to day 50, vs vehicle) | effect on oxygen consumption (MDA MB231 KO cells) | adiponectin levels in plasma (adiponectin) | variability in exposure (PK variability) [2] | effect on oxygen consumption [3] | IC50 [4]
1 | CC(O)c1ccc(CCOc2ccc(CC3SC(=O)NC3=O)cc2)nc1 (racemic) [MIN-102, 5-[[4-[2-[5-(1-hydroxyethyl)pyridin-2-yl]ethoxy]phenyl]methyl]-1,3-thiazolidine-2,4-dione] | did not show a change | extremely low | 92% | 78% | 55% | 0.44±01 | total disappearance of inflammation | blunted steatosis score | less severe decline in body weight loss | does not inhibit oxygen consumption | significantly increased | less variability in exposure than pioglitazone | inhibits oxygen consumption in a MPC dependent manner | –
2 | CN(CCOc1ccc(CC2SC(=O)NC2=O)cc1)c1ccccn1 (centres unmarked) [Rosiglitazone] | – | – | – | – | – | – | – | – | – | – | – | – | – | 2000 nM

From patent US20250064791A1, “5-[[4-[2-[5-(1-HYDROXYETHYL)PYRIDIN-2-YL]ETHOXY]PHENYL]METHYL]-1,3-THIAZOLIDINE-2,4-DIONE AND ITS SALTS FOR USE IN THE TREATMENT OF MITOCHONDRIAL DISEASES” (MINORYX THERAPEUTICS S.L., priority 2018, published 2025)
